The results in this text go back to patent US20240393319A1, “FLUORESCENT SENSORS AND METHODS OF MAKING AND USING” (Howard Hughes Medical Institute, priority 2023, published 2024).

Entries after “also recorded” stand apart in the source; their conditions may differ.

Test [1] relates to LMTK- cells (parental fibroblast cell line). The test can be described thus: Green:red fluorescence (ATP) on treatment. Format: cell-based, mouse. To be noted: 10 mM 2dOG replacing glucose. On the procedure: (§1) Rho° and the parental LMTK-cells were maintained in T-75 flasks with DMEM+10% FBS+1 mM pyruvate+5 μM uridine. Two days prior to transfection, they were split into a 24-well plate (half Rho°, half LMTK) at 0.6 and 0.1 million cells per well, respectively. Cells were transfected with iATPSnFR2.HaloTag variants by lipofectamine (0.5 μg DNA+2 μL lipofectamine 2000 per well) for 4-6 hours in DMEM lacking FBS or antibiotics. Transfection media was replaced with fresh DMEM+10% FBS+penicillin/streptomycin overnight. Cells were labeled with JFX650 HaloTag ligand by adding the fluorophore to 100 nM for an hour. Cells were washed with Mammalian Cell Imaging Buffer and imaged in a Cytation 5 imaging reader (BioTek) over the course of about 2 hours. After about 20 minutes of imaging to establish a baseline fluorescence, the culture plate was removed from the instrument and buffer was replaced with the query buffer. The equilibration buffer contained 10 mM glucose, and the query buffers contained 10 mM 2dOG.
(§2) Images were background subtracted and aligned for movement artefacts with the Gen5 software package that controls the Cytation 5 instrument. Images were assembled as TIF stacks and imported into ImageJ. […] Those ROIs were used to determine the ratio of green to red fluorescence for each well. […]

The subject of another test is Rho° (ρ^0) cells. Nature of the test: Green:red fluorescence (ATP) on treatment. Format: cell-based, mouse. To be noted: 10 mM 2dOG replacing glucose. On the procedure: as §1, §2
Test [2] relates to primary hippocampal neurons. Nature of the test: Synaptic endurance (vGlutI-pH) under repeated stimulation in 0.1 mM glucose. It counts as cell-based, rat.
Test [3] concerns nerve terminals of primary hippocampal neurons. The test can be described thus: Presynaptic ATP dynamics with synapto-iATPSnFR2-miRFP670nano3. It counts as cell-based, rat. To be noted: 0.1 mM glucose. An excerpt:
For synapto-iATPSnFR2-miRFP670nano3 experiments, nerve terminals were selected in the miRFP670nano3 channels, blind to the ATPsnfr channel and then background subtracted. The traces are reported as iATPsnfr2 to miRFP670nano3 ratio, Fratio.

The subject of the next test is DJ-1 KD neurons. Nature of the test: Synaptic endurance in DJ-1 knock-down neurons. Conditions: TZ. It counts as cell-based, Sprague-Dawley rats. The text has this: (§3) FIG. 11A-11H are experimental results showing that PARK7/DJ-1 is necessary for PGK1 driven hypometabolic resilience.
(§4) An unbiased chemical screen recently led to the identification of an interaction between PGK1 and DJ-1, the product of the PARK7 gene, a genetic driver of familial PD. DJ-1 is a chaperone with strong structurally similarity to HSP31 but the precise clientele that it supports related to PD is poorly understood. To investigate whether DJ-1 has a functional impact on PGK1 function, we probed PGK1 rescue of hypometabolic synaptic function, but in absence of DJ-1. […] Furthermore, when glucose was substituted with a mixture of lactate and pyruvate, SV recycling kinetics in DJ-1 KD neurons was indistinguishable from control.

The test system of test [4] is DJ-1 KD neurons, nerve terminals. Nature of the test: Presynaptic ATP in DJ-1 knock-down neurons. Format: cell-based, Sprague-Dawley rats. To be noted: TZ.
Source text: as §3, §4

Test [5] deals with synaptic boutons of hippocampal neurons. Nature of the test: Syn-iATPSnFR2.HaloTag imaging of ATP depletion in boutons. It counts as cell-based, rat. To be noted: 5 mM glucose + 10 μM KA + 0.3 μM TTX.
Test [6] concerns axonal mitochondria of primary hippocampal neurons. Nature of the test: Mitochondrial ATP in primary hippocampal neurons (mito-iATPSnFR2.A95A.A119L.HaloTag). It counts as cell-based, Sprague-Dawley rats. Conditions: 10 μM KA in 5 mM glucose. On the procedure: Primary neuronal cultures were prepared as previously described. Hippocampal CA1 to CA3 regions were dissected, dissociated, and plated onto poly-L-ornithine-coated coverslips. Plating media consisted of the minimal essential medium, 0.5% glucose, insulin (0.024 g/l), transferrin ([…]), GlutaMAX 1%, N-21 (2%), and fetal bovine serum (10%). After 1-3 days in vitro (DIV), cells were fed and maintained in media with the following modifications: cytosine β-D-arabinofuranoside (4 μM) and FBS 5%. Cultures were incubated at 37° C. in a 95% air/5% CO2 incubator. Calcium phosphate-mediated gene transfer was performed on DIV 6-8, and neurons were used for experiments on DIV 14-21.
Coverslips were loaded onto a custom chamber, mounted on a […], 2.5 mM KCl, […], 25 mM HEPES, 2 mM CaCl2), 2 mM MgCl2, 50 μM DL-2-amino-5-phosphonovaleric acid (APV, AP5), 10 μM 6-cyano-7-nitroquinoxaline-2,3-dione (CNQX), adjusted to pH 7.4. […] Fluorescence was stimulated with OBIS 488 nm LX or OBIS 637 nm LS lasers (Coherent) passing through a laser speckle reducer (LSR 3005 at 12° diffusion angle, Optotune). […]
Time series of imaging pairs (HaloTag and iATPSnFR2) were automated split into two independent image series using a custom-written Fiji routine to facilitate analysis. […] Synaptic boutons signals were analyzed using homemade script routines in Igor-pro v 6.3.7.2 (Wavemetric, Lake Oswego, OR, USA). […]

The test system of test [7] is nerve terminals of hippocampal neurons. The test can be described thus: Nerve terminal ATP in cultured neurons (iATPSnFR2.HaloTag-JFX650). It counts as cell-based, Sprague-Dawley rats.
Test [8] is described as follows: Stopped-flow fluorescence kinetics of ATP binding. The method, then: Final concentration of protein was thus 0.1 μM.
Test [9] has as its system nerve terminals of dissociated hippocampal neurons. Nature of the test: Cytosolic ATP in nerve terminals during action potential firing. Format: cell-based, rat. To be noted: 6 sec at 50 Hz, 5 mM glucose + 10 μM KA.

With `OC[C@H]1OC(O)C[C@@H](O)[C@@H]1O` (some centres unmarked) [2dOG, 2-deoxyglucose], the results for the “change in green fluorescence (ATP)” value (in [1]; in the test with Rho° (ρ^0) cells) were “decreased fluorescence only in the parental LMTK-cells expressing the weakest affinity variant (A95A.A119L)” and “green fluorescence rapidly dropped; also recorded: significant decrease in fluorescence”, respectively.

Consider `COc1cc2nc(N3CCN(C(=O)C4CCCO4)CC3)nc(N)c2cc1OC` (centres unmarked) [TZ, Terazosin], for which the “synaptic endurance in low glucose” value is reported as “ineffective” in test [2] (1 μM); “conferred significant resilience” in test [2] (10 μM); “either ineffective or likely deleterious” in test [2] (100 μM); “confers significant resilience” in test [2] (0.1 mM glucose, concentration not given); “completely failed to restore synaptic endurance” in [2] (absence of DJ-1 (DJ-1 KD)); “eliminated” in [2] (neurons with shRNA targeting PGK1). Also, in test [3], the “resting (pre-stimulus) nerve terminal ATP” value is recorded as “slightly elevated; also recorded: higher starting ATP”. Also, the “ATP depletion during stimulation” value in test [3] (600 APs at 10 Hz) is reported as “blunted; also recorded: significantly smaller activity-induced drops in ATP”. Besides, the “ATP production following activity” value in test [3] (DJ-1 KD neurons) is listed as “no acceleration of ATP production; also recorded: inability of TZ to accelerate ATP kinetics”. In addition, the “recycling restoration: slowing of SV recycling after intense stimulation” value in the test on DJ-1 KD neurons is reported as “could not be reversed”. The “acceleration of ATP production after burst of activity” value in test [4] was “inability of TZ to accelerate ATP kinetics in absence of DJ-1”.

As to `CC(C)[C@H]1CC[C@@]2(CO2)[C@H]2C(=O)OCC(C(=O)O)=C[C@H]12` [koningic acid], the “average green to red fluorescence ratio in boutons” value in [5] is reported as “gradually declined over a 5-10 min period”. Besides, the “change in mitochondrial ATP” value in test [6] is “gradual decrease of [ATP]”. Further, in test [7] (10 μM KA with 0.3 μM TTX), the “decline of average green to red ratio (ATP) without activity” value is given as “gradually declined over a 5-10 min period” and the “time for ATP depletion in single boutons after delay” value was 10 to 20 s. Moreover, the “change in fluorescence (ATP) during action potential firing” value in test [7] (10 μM KA, 5 mM glucose, 50 Hz 6 sec) is “even greater decrease in fluorescence that did not recover within the minute and a half observation window”.

“A95K: medium affinity iATPSnFR2 variant, characterised as HaloTag-JFX650 fusion”: in test [8], the “rate of ATP binding / fluorescence change, comparison” value is given as “faster than A95A.A119L”. Besides, in test [9], the “fluorescence change on action potential firing” value is recorded as “much smaller amplitude”.
